Measurements as given in ChEMBL document CHEMBL3244098, “Angiotensin II analogues. 13. Role of the hydroxyl group of position 4 tyrosine in pressor activity” (1979).
Numbered stars: 1 amine (or outer) side, 2 acyl side, 3 side chain; on linkers, the order of the positions; unused ones are H or OH. Square brackets hold non-standard residues; d marks the D form. Peptide text beside a SMILES is read from it. Phe(4-NO2) = N[C@@H](Cc1ccc([N+](=O)[O-])cc1)C(=O)O; Tyr(3,5-I2) = N[C@@H](Cc1cc(I)c(O)c(I)c1)C(=O)O; X3 = N#[N+]c1ccc(C[C@@H](N[*:1])C(=O)[*:2])cc1; X2 = Nc1c(I)cc(C[C@@H](N[*:1])C(=O)[*:2])cc1I; X4 = Cc1cc(C[C@@H](N[*:1])C(=O)[*:2])cc(C)c1O; X1 = Cc1cc(C[C@H](N[*:1])C(=O)[*:2])cc(C)c1O; Tyr(3-I) = N[C@@H](Cc1ccc(O)c(I)c1)C(=O)O; Phe(4-NH2) = Nc1ccc(C[C@H](N)C(=O)O)cc1; Sar = CNCC(=O)O

biological target: T1, Type-1 angiotensin II receptor (Oryctolagus cuniculus) (UniProt P34976); experiment: Binding affinity to angiotensin 2 receptor in rabbit aorta
T1 sequence (whole entry): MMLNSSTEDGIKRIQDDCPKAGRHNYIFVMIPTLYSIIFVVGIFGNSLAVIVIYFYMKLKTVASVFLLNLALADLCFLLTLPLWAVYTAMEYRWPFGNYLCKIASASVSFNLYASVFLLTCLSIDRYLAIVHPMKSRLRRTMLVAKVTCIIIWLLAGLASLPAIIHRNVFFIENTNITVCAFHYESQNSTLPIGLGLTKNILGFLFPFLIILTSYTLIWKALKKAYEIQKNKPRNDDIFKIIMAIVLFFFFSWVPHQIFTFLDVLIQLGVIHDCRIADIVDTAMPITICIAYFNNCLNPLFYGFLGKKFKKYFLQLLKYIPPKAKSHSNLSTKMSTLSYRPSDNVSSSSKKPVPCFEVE

| Activity [%] | SMILES |
| --- | --- |
| 15 | CNCC(=O)N[C@@H](CCCNC(=N)N)C(=O)N[C@H](C(=O)N[C@H](Cc1ccc(N)cc1)C(=O)N[C@H](C(=O)N[C@@H](Cc1cnc[nH]1)C(=O)N1CCC[C@H]1C(=O)N[C@@H](Cc1ccccc1)C(=O)O)C(C)C)C(C)C |
| 2.7 | CNCC(=O)N[C@@H](CCCNC(=N)N)C(=O)N[C@H](C(=O)N[C@H](Cc1cc(I)c(N)c(I)c1)C(=O)N[C@H](C(=O)N[C@@H](Cc1cnc[nH]1)C(=O)N1CCC[C@H]1C(=O)N[C@@H](Cc1ccccc1)C(=O)O)C(C)C)C(C)C (H-[Sar]RV[X2]VHPF-OH) |
| 0.26 | CNCC(=O)N[C@@H](CCCNC(=N)N)C(=O)N[C@H](C(=O)N[C@H](Cc1ccc(N=[N+]=[N-])cc1)C(=O)N[C@H](C(=O)N[C@@H](Cc1cnc[nH]1)C(=O)N1CCC[C@H]1C(=O)N[C@@H](Cc1ccccc1)C(=O)O)C(C)C)C(C)C |
| 0.66 | CNCC(=O)N[C@@H](CCCNC(=N)N)C(=O)N[C@H](C(=O)N[C@H](Cc1ccc([N+]#N)cc1)C(=O)N[C@H](C(=O)N[C@@H](Cc1cnc[nH]1)C(=O)N1CCC[C@H]1C(=O)N[C@@H](Cc1ccccc1)C(=O)O)C(C)C)C(C)C (H-[Sar]RV[X3]VHPF-OH) |

species on record: Rattus norvegicus; experiment: Pressor activity in nephrectomized, pentolinium treated rat relative to [Asn1,Val5]AII; type: functional

| SMILES | Activity [%] |
| --- | --- |
| CC[C@H](C)[C@H](NC(=O)[C@@H](Cc1cc(C)c(O)c(C)c1)NC(=O)[C@@H](NC(=O)[C@H](CCCNC(=N)N)NC(=O)[C@@H](N)CC(N)=O)C(C)C)C(=O)N[C@@H](Cc1cnc[nH]1)C(=O)N1CCC[C@H]1C(=O)N[C@@H](Cc1ccccc1)C(=O)O (H-NRV[X4]IHPF-OH) | 1.4 |
| CC(C)[C@H](NC(=O)[C@H](CCCNC(=N)N)NC(=O)[C@@H](N)CC(N)=O)C(=O)N[C@@H](Cc1cc(I)c(O)c(I)c1)C(=O)N[C@H](C(=O)N[C@@H](Cc1cnc[nH]1)C(=O)N1CCC[C@H]1C(=O)N[C@@H](Cc1ccccc1)C(=O)O)C(C)C (H-NRV[Tyr(3,5-I2)]VHPF-OH) | 13 |
| CC(C)[C@H](NC(=O)[C@H](CCCNC(=N)N)NC(=O)[C@@H](N)CC(N)=O)C(=O)N[C@@H](Cc1ccc(O)c(I)c1)C(=O)N[C@H](C(=O)N[C@@H](Cc1cnc[nH]1)C(=O)N1CCC[C@H]1C(=O)N[C@@H](Cc1ccccc1)C(=O)O)C(C)C (H-NRV[Tyr(3-I)]VHPF-OH) | 33 |
| CC[C@H](C)[C@H](NC(=O)[C@H](Cc1ccc(N)cc1)NC(=O)[C@@H](NC(=O)[C@H](CCCNC(=N)N)NC(=O)[C@@H](N)CC(N)=O)C(C)C)C(=O)N[C@@H](Cc1cnc[nH]1)C(=O)N1CCC[C@H]1C(=O)N[C@@H](Cc1ccccc1)C(=O)O (H-NRV[Phe(4-NH2)]IHPF-OH) | 24 |
| CC[C@H](C)[C@H](NC(=O)[C@H](Cc1cc(C)c(O)c(C)c1)NC(=O)[C@@H](NC(=O)[C@H](CCCNC(=N)N)NC(=O)[C@@H](N)CC(N)=O)C(C)C)C(=O)N[C@@H](Cc1cnc[nH]1)C(=O)N1CCC[C@H]1C(=O)N[C@@H](Cc1ccccc1)C(=O)O (H-NRV[X1]IHPF-OH) | 2.2 |
| CC[C@H](C)[C@H](NC(=O)[C@H](Cc1ccccc1)NC(=O)[C@@H](NC(=O)[C@H](CCCNC(=N)N)NC(=O)[C@@H](N)CC(=O)O)C(C)C)C(=O)N[C@@H](Cc1cnc[nH]1)C(=O)N1CCC[C@H]1C(=O)N[C@@H](Cc1ccccc1)C(=O)O (H-DRVFIHPF-OH) | 10 |
| CC[C@H](C)[C@H](NC(=O)[C@H](Cc1ccc([N+](=O)[O-])cc1)NC(=O)[C@@H](NC(=O)[C@H](CCCNC(=N)N)NC(=O)[C@@H](N)CC(N)=O)C(C)C)C(=O)N[C@@H](Cc1cnc[nH]1)C(=O)N1CCC[C@H]1C(=O)N[C@@H](Cc1ccccc1)C(=O)O (H-NRV[Phe(4-NO2)]IHPF-OH) | 0.1 |
